Reference: patent publication US5457106A, “Pyridine derivatives, their production and use” (Takeda Chemical Industries, Ltd., priority 1991, dated 1995)
Read-outs that look alike come from different tables or passages of the source.

Columns and labels:
cyclooxygenase = biological target: T1, cyclooxygenase (Rattus norvegicus, UniProt Q63921); assay: Cyclooxygenase inhibitory activity (HHT formation from arachidonic acid in rat platelet-rich plasma); type: cell-based, rat (Jcl:wistar)
T1 construct: from tissue; host or cells: platelets in platelet-rich plasma from rat abdominal aorta blood (Jcl:wistar, male)
T1 sequence (Q63921 27-602): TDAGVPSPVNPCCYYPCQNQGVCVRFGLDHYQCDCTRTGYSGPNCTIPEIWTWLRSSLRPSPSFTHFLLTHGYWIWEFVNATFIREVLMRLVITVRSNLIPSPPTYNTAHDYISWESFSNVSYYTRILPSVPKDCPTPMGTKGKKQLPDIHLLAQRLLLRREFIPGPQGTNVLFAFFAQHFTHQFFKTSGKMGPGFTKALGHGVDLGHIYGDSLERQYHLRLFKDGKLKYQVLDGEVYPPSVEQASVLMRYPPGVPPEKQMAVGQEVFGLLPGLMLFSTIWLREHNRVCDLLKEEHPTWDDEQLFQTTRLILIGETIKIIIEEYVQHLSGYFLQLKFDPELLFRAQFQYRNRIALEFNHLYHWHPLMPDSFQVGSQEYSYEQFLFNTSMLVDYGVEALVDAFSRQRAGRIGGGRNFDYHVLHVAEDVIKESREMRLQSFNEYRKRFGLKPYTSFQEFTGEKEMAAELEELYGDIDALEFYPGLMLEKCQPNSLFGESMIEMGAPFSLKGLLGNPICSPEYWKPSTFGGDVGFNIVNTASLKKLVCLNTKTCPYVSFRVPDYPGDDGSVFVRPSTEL

Rat adjuvant arthritis = assay: Activity to rat adjuvant arthritis; type: in vivo, rat (SD or Lewis); details: 50 mg/kg, day 0 to day 13
[1] = system: Mouse phenylquinone writhing; assay: Mouse phenylquinone writhing inhibitory activity; type: in vivo, mouse (Slc: ICR); details: Mus musculus, po, 20 min, 50 mg/kg, orally; read-out: Inhibitory percentage (phenylquinone writhing)
How it was run: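 Male ICR mice (4 weeks, 17–24 g) dosed orally with compound suspended in 5% gum arabic. After 30 min, 0.02% phenylquinone (0.1 ml/10 g) given i.p.; writhing and stretching responses counted over 20 min.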

[2] = system: brewer's yeast induced pyrexia; assay: Antipyretic activity (brewer's yeast induced pyrexia); type: in vivo, rat (DS line); details: 50 mg/kg, orally
How it was run: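 Male DS rats (7 weeks, 200-240 g) made febrile by s.c. 15% brewer's yeast 18 h before dosing; only animals at ≥38.5° C used. Compound given orally versus solvent control, with rectal temperature taken by thermistor hourly for 5 h post-dose.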

ICAM-1 = assay: Adhesion protein expression inhibitory activity, ICAM-1; type: cell-based; details: human umbilical vascular endothelial cells, TNF-α, 360 min
How it was run: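 HUVECs pre-incubated with test compounds 15 minutes at 37° C., then stimulated with TNF-α at 1 ng/ml final for 3 hours (ELAM-1) or 6 hours (ICAM-1). Surface expression measured on glutaraldehyde-fixed cells by cell-ELISA using anti-ELAM-1 BBA-2 or anti-ICAM-1 BBA4 and HRP-labelled anti-mouse IgG.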

[3] = system: acute renal failure induced by renal ischemia followed by reperfusion in rats; assay: Effect on acute renal failure induced by renal ischemia-reperfusion; type: in vivo, rat (Sprague-Dawley); details: 50 mg/kg, orally, 20 hours of reperfusion
Description: Effect On Acute Renal Failure Induced By Renal Ischemia-Reperfusion Male Sprague-Dawley rats (6 to 7 weeks old) were anesthetized using pentobarbital sodium (50 mg/kg, i.p.) and bilateral renal arteries were completely occluded for 45 minutes followed by reperfusion. After 20 hours of the reperfusion, the blood was collected from the abdominal aorta under anesthesia and the blood urea nitrogen (BUN) was determined.

[4] = system: ART (antigen-responding T-cell); assay: In vitro ART (antigen-responding T-cell) proliferation test; type: cell-based, Lewis rat; details: Rattus norvegicus, T-cell, read-out: % Inhibition of ART growth
ELAM-1 = assay: Adhesion protein expression inhibitory activity, ELAM-1; type: cell-based; details: 13 μM, human umbilical vascular endothelial cells, TNF-α; 180 min
Description: Adhesion Protein Expression Inhibitory Activity The various concentrations of test compounds were added to the human umbilical cord-derived vascular endothelial cells [sold by Klabo] which were seeded in the gelatin coat plate and the mixture was incubated at 37° C. for 15 minutes. Then, the human tumor necrosis factor-α[TNF-α; sold by Genzyme] was added therein to the final concentration of 1 ng/ml and incubation was carried out at 37° C. for 3 hours for expression of ELAM-1 and for 6 hours for that of ICAM-I. After the reaction, the cells were fixed using glutaraldhyde and the expression amount of ELAM-1 and ICAM-1 was measured by the cell-ELISA method. That is, the expression was determined by […] the adhesion proteins on the cells in the system using anti-ELAM-1 antibody BBA-2 and anti-ICAM-1 antibody BBA4 as the first antibody as well as horseradish peroxidase-labeled rabbit anti-mouse IgG antibody as the second antibody.

[5] = system: Mouse acetic acid writhing; assay: Mouse acetic acid writhing inhibitory activity; type: in vivo, mouse (Slc: ICR); details: Mus musculus, po, 20 min, orally, read-out: Inhibitory percentage (acetic acid writhing)
How it was run: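 Male ICR mice, 4 weeks old, 10 per group, dosed orally (suspension in 5% gum arabic). After 30 min, 0.6% acetic acid given i.p. and writhing counted for 20 min. Percent inhibition calculated per animal against mean control response.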

5-Lipoxygenase = biological target: T2, 5-Lipoxygenase (Rattus norvegicus, UniProt P12527); assay: 5-Lipoxygenase inhibitory activity in rat basophilic leukemia cells; type: cell-based
T2 construct: rat basophilic leukemia cell suspension; endogenous in cells
T2 sequence (P12527 1-673): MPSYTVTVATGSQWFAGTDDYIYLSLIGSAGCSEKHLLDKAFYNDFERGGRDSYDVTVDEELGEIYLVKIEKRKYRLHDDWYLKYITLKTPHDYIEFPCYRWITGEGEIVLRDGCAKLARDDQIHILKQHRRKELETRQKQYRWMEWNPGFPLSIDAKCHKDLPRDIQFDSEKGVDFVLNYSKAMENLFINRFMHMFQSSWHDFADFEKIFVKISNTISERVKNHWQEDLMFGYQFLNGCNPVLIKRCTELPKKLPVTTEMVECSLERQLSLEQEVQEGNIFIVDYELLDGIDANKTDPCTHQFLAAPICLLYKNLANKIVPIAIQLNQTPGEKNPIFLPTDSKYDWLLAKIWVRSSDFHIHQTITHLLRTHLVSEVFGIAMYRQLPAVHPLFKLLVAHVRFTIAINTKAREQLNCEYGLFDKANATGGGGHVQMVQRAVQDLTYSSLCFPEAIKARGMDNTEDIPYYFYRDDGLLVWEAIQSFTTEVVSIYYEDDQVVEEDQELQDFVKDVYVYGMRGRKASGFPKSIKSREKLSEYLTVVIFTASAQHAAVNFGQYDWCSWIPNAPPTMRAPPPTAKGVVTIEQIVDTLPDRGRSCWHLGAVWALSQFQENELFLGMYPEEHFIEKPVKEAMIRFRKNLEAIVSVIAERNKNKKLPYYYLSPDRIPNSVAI
Description: 5-Lipoxygenase Inhibitory Activity […] Then, 0.1 ml of mast cell medium containing 50 μg of arachidonic acid and 1 μg of calcium ionophore (A-23187) were added and the mixture was allowed to stand at 37° C. for 15 minutes. Ethanol (1 ml) was added thereto and the mixture was shaken well, and filtered (Membrane filter, 0.45 μm). […] As a control, the measurement was carried out according to the same manner except that 0.01 ml of the solvent used for dissolving the test compound was used in place of the test compound. The inhibitory percentage (%) was calculated from the following equation to obtain IC50.

IC50 (cyclooxygenase) | IC50 (5-Lipoxygenase; 5-HETE, read-out: 5-Lipoxygenase inhibitory activity, 5-HETE IC50) | IC50 (5-Lipoxygenase; LTB4, read-out: 5-Lipoxygenase inhibitory activity, LTB4 IC50) | SMILES | Swelling inhibitory percentage (Rat adjuvant arthritis) | inhibition in vivo at 50 mg/kg [1] | Antipyretic activity, peak time [2] | Antipyretic activity, .increment. °C. ([2]; at peak time) | Expression Inhibitory Potency, ICAM-1 (ICAM-1; 30 μM) | Blood urea nitrogen [3] | inhibition at 1 µM [4] | inhibition at 10 µM [4] | Expression Inhibitory Potency, ICAM-1 (ICAM-1; 13 μM) | Expression Inhibitory Potency, ELAM-1 (ELAM-1) | inhibition in vivo at 50 mg/kg [5]
2800 nM | – | – | Cl.O=C(N(CCCSc1ccncc1)Cc1ccccc1)C(F)(F)F [Example 73, 4-[3-(N-benzyl-N-trifluoroacetylamino)propylthio]pyridine hydrochloride] | 52% | 75% | 2 h | -0.65 °C | 42% | 68 ± 3 mg/dL | 23% | 82% | – | – | –
– | – | – | O=C1SC(=Cc2cccs2)C(=O)N1CCCCSc1ccncc1 [Example 157, 4-[4-[5-(2-thienylmethylene)-2,4-thiazolidinedione]butylthio]pyridine] | – | – | – | – | 78% | 62.4 ± 7.0 mg/dL | -50% | 62% | – | – | –
– | – | – | CCCC=C1SC(=O)N(CCCCSc2ccncc2)C1=O [Example 171, 4-[4-(5-propylmethylene-2,4-thiazolidinedione)butylthio]pyridine] | – | – | – | – | – | 64 ± 11 mg/dL | 96% | 41% | 75% | 94% | –
– | 2600 nM | 2500 nM | O=C1SC(=Cc2ccccc2)C(=O)N1CCCCSc1ccncc1 [Example 150, 4-[4-(5-benzylidene-2,4-thiazolidinedione)butylthio]pyridine] | – | – | – | – | 94% | 76.8 ± 16.9 mg/dL | -31% | 75% | – | – | 54%
